One block for each compound: values may come before it. Calls of active or inactive are those of the source. The rule behind the calls is not given here.
Tests used:
MDA-MB-231 [1] = assay: Cytotoxicity against human MDA-MB-231 spheroids expressing carbonic anhydrase 9/12 assessed as cell viability at 1 mM after 24 hrs by WST8 assay; assay type: functional
SK-OV-3 [2] = assay: (§1) Cytotoxicity against human SKOV3 spheroids expressing carbonic anhydrase 9/12 assessed as cell viability at 1 mM after 24 hrs by WST8 assay; assay type: functional
HT-29 [3] = assay: Cytotoxicity against human HT-29 spheroids expressing carbonic anhydrase 9/12 assessed as cell viability at 100 uM after 24 hrs by WST8 assay; assay type: functional
HT-29 [4] = assay: Cytotoxicity against human HT-29 spheroids expressing carbonic anhydrase 9/12 assessed as cell viability at 1 mM after 24 hrs by WST8 assay; assay type: functional
SK-OV-3 [5] = assay: (§2) Cytotoxicity against human SKOV3 spheroids expressing carbonic anhydrase 9/12 assessed as cell viability at 100 uM after 24 hrs by WST8 assay; assay type: functional
MDA-MB-231 [6] = assay: Cytotoxicity against human MDA-MB-231 spheroids expressing carbonic anhydrase 9/12 assessed as cell viability at 100 uM after 24 hrs by WST8 assay; assay type: functional
Carbonic anhydrase 9 = Carbonic anhydrase 9 (Homo sapiens, UniProt Q16790)
Description: Inhibition of human recombinant carbonic anhydrase 9 preincubated for 15 mins prior to testing by stopped-flow CO2 hydration assay

[7] = as §1; assay type: functional; conditions: SK-OV-3, 24 h, read-out: Activity
HT-29 [8] = assay: Cytotoxicity against human HT-29 cells expressing carbonic anhydrase 9/12 assessed as cell viability at 1 mM after 24 hrs under normoxic conditions by MTT assay; assay type: functional; conditions: HT-29, 24 h, read-out: Activity
HT-29 [9] = assay: Cytotoxicity against human HT-29 cells expressing carbonic anhydrase 9/12 assessed as cell viability at 100 uM after 24 hrs under hypoxic conditions by MTT assay; assay type: functional; conditions: HT-29, 24 h, read-out: Activity
HT-29 [10] = assay: Cytotoxicity against human HT-29 cells expressing carbonic anhydrase 9/12 assessed as cell viability at 10 uM after 24 hrs under normoxic conditions by MTT assay; assay type: functional; conditions: HT-29, 24 h, read-out: Activity
HT-29 [11] = assay: Cytotoxicity against human HT-29 cells expressing carbonic anhydrase 9/12 assessed as cell viability at 100 uM after 24 hrs under normoxic conditions by MTT assay; assay type: functional; conditions: HT-29, 24 h, read-out: Activity
HT-29 [12] = assay: Cytotoxicity against human HT-29 cells expressing carbonic anhydrase 9/12 assessed as cell viability at 1 mM after 24 hrs under hypoxic conditions by MTT assay; assay type: functional; conditions: HT-29, 24 h, read-out: Activity
[13] = Cytotoxicity against human SKOV3 cells expressing carbonic anhydrase 9/12 assessed as cell viability at 1 mM after 24 hrs under hypoxic conditions by MTT assay; assay type: functional; conditions: SK-OV-3, 24 h, read-out: Activity
[14] = Cytotoxicity against human SKOV3 cells expressing carbonic anhydrase 9/12 assessed as cell viability at 100 uM after 24 hrs under hypoxic conditions by MTT assay; assay type: functional; conditions: SK-OV-3, 24 h, read-out: Activity
[15] = Cytotoxicity against human SKOV3 cells expressing carbonic anhydrase 9/12 assessed as cell viability at 1 mM after 24 hrs under normoxic conditions by MTT assay; assay type: functional; conditions: SK-OV-3, 24 h, read-out: Activity
MDA-MB-231 [16] = assay: Cytotoxicity against human MDA-MB-231 cells expressing carbonic anhydrase 9/12 assessed as cell viability at 10 uM after 24 hrs under normoxic conditions by MTT assay; assay type: functional; conditions: MDA-MB-231, 24 h, read-out: Activity
MDA-MB-231 [17] = assay: Cytotoxicity against human MDA-MB-231 cells expressing carbonic anhydrase 9/12 assessed as cell viability at 100 uM after 24 hrs under normoxic conditions by MTT assay; assay type: functional; conditions: MDA-MB-231, 24 h, read-out: Activity
MDA-MB-231 [18] = assay: Cytotoxicity against human MDA-MB-231 cells expressing carbonic anhydrase 9/12 assessed as cell viability at 1 mM after 24 hrs under normoxic conditions by MTT assay; assay type: functional; conditions: MDA-MB-231, 24 h, read-out: Activity
HT-29 [19] = assay: Cytotoxicity against human HT-29 cells expressing carbonic anhydrase 9/12 assessed as cell viability at 10 uM after 24 hrs under hypoxic conditions by MTT assay; assay type: functional; conditions: HT-29, 24 h, read-out: Activity
[20] = Cytotoxicity against human SKOV3 cells expressing carbonic anhydrase 9/12 assessed as cell viability at 10 uM after 24 hrs under hypoxic conditions by MTT assay; assay type: functional; conditions: SK-OV-3, 24 h, read-out: Activity
[21] = Cytotoxicity against human SKOV3 cells expressing carbonic anhydrase 9/12 assessed as cell viability at 10 uM after 24 hrs under normoxic conditions by MTT assay; assay type: functional; conditions: SK-OV-3, 24 h, read-out: Activity
MDA-MB-231 [22] = assay: Cytotoxicity against human MDA-MB-231 cells expressing carbonic anhydrase 9/12 assessed as cell viability at 10 uM after 24 hrs under hypoxic conditions by MTT assay; assay type: functional; conditions: MDA-MB-231, 24 h, read-out: Activity
MDA-MB-231 [23] = assay: Cytotoxicity against human MDA-MB-231 cells expressing carbonic anhydrase 9/12 assessed as cell viability at 100 uM after 24 hrs under hypoxic conditions by MTT assay; assay type: functional; conditions: MDA-MB-231, 24 h, read-out: Activity
[24] = as §2; assay type: functional; conditions: SK-OV-3, 24 h, read-out: Activity
[25] = Cytotoxicity against human SKOV3 cells expressing carbonic anhydrase 9/12 assessed as cell viability at 100 uM after 24 hrs under normoxic conditions by MTT assay; assay type: functional; conditions: SK-OV-3, 24 h, read-out: Activity
MDA-MB-231 [26] = assay: Cytotoxicity against human MDA-MB-231 cells expressing carbonic anhydrase 9/12 assessed as cell viability at 1 mM after 24 hrs under hypoxic conditions by MTT assay; assay type: functional; conditions: MDA-MB-231, 24 h, read-out: Activity
[27] = MDA-MB-231, 24 h, read-out: Activity
[28] = HT-29, 24 h, read-out: Activity

Compound: NS(=O)(=O)c1nnc(NC(=O)CCC(=O)O)s1
Activity (MDA-MB-231 [1]): inactive
Activity (SK-OV-3 [2]): Active
Activity (HT-29 [3]): Active
Activity (HT-29 [4]): Active
Activity (SK-OV-3 [5]): Active
Activity (MDA-MB-231 [6]): inactive

Compound: NS(=O)(=O)c1nnc(NS(=O)(=O)c2ccc(NC(=O)CCC(=O)NCCOCCOCCNC(=O)CCC(=O)Nc3ccc(S(=O)(=O)Nc4nnc(S(N)(=O)=O)s4)cc3)cc2)s1
Activity (MDA-MB-231 [1]): inactive
Activity (SK-OV-3 [2]): Active
Activity (HT-29 [3]): Active
Activity (HT-29 [4]): Active
Activity (SK-OV-3 [5]): Active
Activity (MDA-MB-231 [6]): inactive
Ki (Carbonic anhydrase 9): 24.1 nM

Compound: NS(=O)(=O)c1ccc(NC(=O)CCC(=O)NCCOCCOCCNC(=O)CCC(=O)Nc2ccc(S(N)(=O)=O)cc2)cc1
Activity (MDA-MB-231 [1]): inactive
Activity (SK-OV-3 [2]): Active
Activity (HT-29 [3]): Active
Activity (HT-29 [4]): Active
Activity (SK-OV-3 [5]): Active
Activity (MDA-MB-231 [6]): inactive
Ki (Carbonic anhydrase 9): 2.9 nM

Compound: NS(=O)(=O)c1nnc(NS(=O)(=O)c2ccc(NC(=O)CCC(=O)O)cc2)s1
Activity (MDA-MB-231 [1]): inactive
Activity (SK-OV-3 [2]): Active
Activity (HT-29 [3]): Active
Activity (HT-29 [4]): Active
Activity (SK-OV-3 [5]): Active
Activity (MDA-MB-231 [6]): inactive

Continued, in another order:

Ki (Carbonic anhydrase 9): 1.7 nM
Compound: NS(=O)(=O)c1nnc(NS(=O)(=O)c2ccc(NC(=O)CCC(=O)NCCOCCOCCOCCOCCOCCOCCOCCOCCOCCOCCOCCOCCOCCOCCOCCOCCOCCOCCOCCOCCOCCOCCOCCOCCOCCOCCOCCOCCOCCOCCOCCOCCOCCOCCOCCOCCOCCOCCOCCOCCOCCOCCOCCOCCOCCNC(=O)CCC(=O)Nc3ccc(S(=O)(=O)Nc4nnc(S(N)(=O)=O)s4)cc3)cc2)s1

Ki (Carbonic anhydrase 9): 9.6 nM
Compound: NS(=O)(=O)c1nnc(NC(=O)CCC(=O)NCCOCCOCCNC(=O)CCC(=O)Nc2nnc(S(N)(=O)=O)s2)s1

Ki (Carbonic anhydrase 9): 2.5 nM
Compound: NS(=O)(=O)c1nnc(NC(=O)CCC(=O)NCCOCCOCCOCCOCCOCCOCCOCCOCCOCCOCCOCCOCCOCCOCCOCCOCCOCCOCCOCCOCCOCCOCCOCCOCCOCCOCCOCCOCCOCCOCCOCCOCCOCCOCCOCCOCCOCCOCCOCCOCCOCCOCCOCCOCCOCCNC(=O)CCC(=O)Nc2nnc(S(N)(=O)=O)s2)s1
viability at 1000 µM (MDA-MB-231 [1]; [27]): 80%
viability at 1000 µM [7]: 50%
viability at 1000 µM (HT-29 [8]): 30%
viability at 100 µM (HT-29 [9]): 50%
viability at 10 µM (HT-29 [10]): 60%
viability at 100 µM (HT-29 [3]; [28]): 70%
viability at 100 µM (HT-29 [11]): 50%
viability at 1000 µM (HT-29 [12]): 30%
viability at 1000 µM [13]: 30%
viability at 1000 µM (HT-29 [4]; [28]): 60%
viability at 100 µM [14]: 50%
viability at 1000 µM [15]: 30%
viability at 10 µM (MDA-MB-231 [16]): 60%
viability at 100 µM (MDA-MB-231 [17]): 50%
viability at 1000 µM (MDA-MB-231 [18]): 30%
viability at 10 µM (HT-29 [19]): 60%
viability at 10 µM [20]: 60%
viability at 10 µM [21]: 60%
viability at 10 µM (MDA-MB-231 [22]): 60%
viability at 100 µM (MDA-MB-231 [23]): 50%
viability at 100 µM [24]: 80%
viability at 100 µM (MDA-MB-231 [6]; [27]): 90%
viability at 100 µM [25]: 50%
viability at 1000 µM (MDA-MB-231 [26]): 30%

Ki (Carbonic anhydrase 9): 4.8 nM
Compound: NS(=O)(=O)c1ccc(NC(=O)CCC(=O)NCCOCCOCCOCCOCCOCCOCCOCCOCCOCCOCCOCCOCCOCCOCCOCCOCCOCCOCCOCCOCCOCCOCCOCCOCCOCCOCCOCCOCCOCCOCCOCCOCCOCCOCCOCCOCCOCCOCCOCCOCCOCCOCCOCCOCCOCCNC(=O)CCC(=O)Nc2ccc(S(N)(=O)=O)cc2)cc1

From ChEMBL document CHEMBL3822401, “PEGylated Bis-Sulfonamide Carbonic Anhydrase Inhibitors Can Efficiently Control the Growth of Several Carbonic Anhydrase IX-Expressing Carcinomas” (J Med Chem, 2016)
